Test results taken from patent publication EP4775571A1, “LPAR1 ANTAGONIST AND USE THEREOF” (Haisco Pharmaceutical Group Co., Ltd., priority 2023, dated 2025).
Blank lines part the entries; values can stand above or below the compound they belong to.

How the values were obtained:
[1] = biological target: T1, LPAR1 (Homo sapiens, UniProt Q92633); experiment: Cell calcium flux assay (antagonist mode, LPA at EC80, FLIPR); assay type: cell-based; settings: CHO-LPA1 cells, calcium flux, grades; read-out: LPAR1 IC50
T1 construct: expressed in transfected cells; host or cells: CHO (CHO-LPA1 cells)
Procedure: • 1) The test compound was diluted to a 400X stock solution with DMSO in a 384-well plate. • 2) 1 µl of compound solution from step 1 was transferred into 39 ul of assay buffer to prepare a 10X working solution in a 384-well plate using a Bravo automated liquid handling platform. • 3) CHO-LPA1 cells were cultured in F12 medium (10% FBS). • 4) When cells reached 80% confluence, the cells were dissociated using 0.25% trypsin-EDTA. • 5) Cell density was determined and the cells were diluted to 4x10e5/ml using F12 (10% FBS). • 6) 30 µl of the cell suspension was dispensed into a 384-well plate (corning 3764#) using a multidrop automated dispenser, resulting in 12,000 cells per well. The plate was incubated at 37°C with 5% CO2 for 18-20 hours. • 7) The medium was replaced with 25 uL of serum-free medium and incubated overnight. • 8) 10 ul of 3.5X loading dye was added to each well of the cell plate. The plate was incubated in the dark at 37°C with 5% CO2 for 0.5-1 hours. • 9) After incubation, 5 µl of the 10X working solution from step 2 was transferred to the cell plate. • 10) The cell plate was incubated in the dark at 25°C for 15 minutes, and then the calcium signals were read. • 11) A 5X agonist (LPA) working solution in 1X HBSS+20 mM HEPES+0.1% BSA was prepared in a 384-well assay plate (greiner 784075#), with at least 20 µl per well. The agonist concentration used in this assay was determined based on the dose-response curve from a prior agonist mode experiment, with the EC80 value serving as the final agonist concentration. • 12) Data were read and saved using FLIPR at room temperature with the specified settings. • 13) The signal values were plotted against compound concentrations, and the curve fitting was performed and the IC50 values were calculated using nonlinear regression analysis in GraphPad Prism software.
IC50 values are represented by grades A, B, C, and D, where A represents 0 < IC50 ≤ 10 nM, B represents 10 nM < IC50 ≤ 50 nM, C represents 50 nM < IC50 ≤ 100 nM, and D represents IC50 > 100 nM. Table 1 Antagonistic activity of the compounds of the present invention against LPAR1

[2] = Pharmacokinetic test in rats; assay type: in vivo, SD rats; settings: for Vd: read-out: Vdss
Procedure: 3.1. Experimental animals: Male SD rats, about 220 g, 6-8 weeks old, 6 rats/compound, purchased from Chengdu Ddossy Experimental Animals Co., Ltd.
3.2. Experimental design: On the day of the experiment, the SD rats were randomly grouped according to their body weights. The animals were fasted with water available for 12-14 h one day before the administration, and were fed 4 h after the administration. Table 4. Administration information
(§1) Before and after administration, 0.15 mL of blood was taken from the orbit under isoflurane anaesthesia and placed in an EDTAK2 centrifuge tube. The tube was centrifuged at 5000 rpm at 4°C for 10 min, and plasma was collected. Before analysis and detection, all samples were stored at -80°C, and the samples were quantitatively analysed by LC-MS/MS. Table 5. Pharmacokinetic parameters of test compound in plasma of rats

[3] = Pharmacokinetic test in mice; assay type: in vivo, C57 mice
Procedure: 2.1 Experimental animals: Male C57 mice, 20-25 g, 6 mice/compound, purchased from Chengdu Ddossy Experimental Animals Co., Ltd.
2.2 Experimental design: On the day of the experiment, the C57 mice were randomly grouped according to their body weights. The animals were fasted with water available for 12-14 h one day before the administration, and were fed 4 h after the administration. Table 2. Administration information
as §1, with “0.06” for “0.15”, “collected. The blood collection time points for the intravenous administration group and oral gavage administration group were: 0 min, 5 min, 15 min, 30 min, 1 h, 2 h, 4 h, 6 h, 8 h, and 24 h.” for “collected.”, “3.” for “5.”, “compounds” for “compound”, “mice” for “rats”

[4] = rat, iv, rats, i.v. (1 mg/kg), plasma
[5] = rat, po, rats, i.g. (3 mg/kg), plasma
[6] = mouse, iv, mice, i.v. (1 mg/kg), plasma

T1 sequence (Q92633 whole entry): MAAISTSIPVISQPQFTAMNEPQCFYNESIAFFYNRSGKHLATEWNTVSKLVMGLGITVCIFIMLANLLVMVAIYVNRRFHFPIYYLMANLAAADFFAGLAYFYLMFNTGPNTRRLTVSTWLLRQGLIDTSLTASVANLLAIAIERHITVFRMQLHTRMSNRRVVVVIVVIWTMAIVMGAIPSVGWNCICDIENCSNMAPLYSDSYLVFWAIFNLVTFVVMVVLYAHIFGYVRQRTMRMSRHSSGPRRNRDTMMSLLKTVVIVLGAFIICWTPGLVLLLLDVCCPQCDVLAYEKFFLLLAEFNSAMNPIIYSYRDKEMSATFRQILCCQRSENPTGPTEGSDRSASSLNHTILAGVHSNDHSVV

SMILES: C=C1CC(N(C)C(=O)OCc2c(-c3ccc(N[C@H]4CCC[C@H](C(=O)O)C4)c(C)n3)nnn2C)C1 [Compound 21]
- IC50 [1]: < 10 nM

SMILES: Cc1nc(-c2nnn(C)c2CNC(=O)OCC2CC(=C(F)F)C2)ccc1O[C@H]1CCC[C@H](C(=O)O)C1 (stereo partly shown) [Compound 23]
- IC50 [1]: < 10 nM

SMILES: C=C1C[C@H](Oc2ccc(-c3nnn(C)c3COC(=O)N(C)CCC)nc2C)C[C@@H](C(=O)O)C1 [Compound 24]
- IC50 [1]: < 10 nM

SMILES: C=C1CC(N(C)C(=O)OCc2c(-c3ccc(OCC4C(C(=O)O)C4(F)F)c(C)n3)nnn2C)C1 (stereo not shown) [Compound 25]
- IC50 [1]: < 10 nM

SMILES: Cc1nc(-c2nnn(C)c2COC(=O)N(C)CCOC(F)F)ccc1O[C@H]1CCC[C@H](C(=O)O)C1 [Compound 27]
- IC50 [1]: < 10 nM

SMILES: Cc1nc(-c2nnn(C)c2COC(=O)N(C)CCSC(F)(F)F)ccc1O[C@H]1CCC[C@H](C(=O)O)C1 [Compound 28]
- IC50 [1]: < 10 nM

SMILES: C=C1CC(N(C)C(=O)OCc2c(-c3ccc(OCC(C)(C)CC(=O)O)c(C)n3)nnn2C)C1 [Compound 29]
- pharmacokinetic characteristics in rats ([2]; conclusion in words): good pharmacokinetic characteristics
- AUC(0-t) [2, 4]: 1090 ± 208 ng·h/mL
- clearance [2, 4]: 15 ± 2.7 mL/min/kg
- Vd [2, 4]: 3.53 ± 1.6 L/kg
- AUC(0-t) [2, 5]: 2540 ± 679 ng·h/mL
- C0 or Cmax ([2]; rats, i.g. (3 mg/kg), plasma): 739 ± 29 ng/mL
- C0 or Cmax ([2]; rats, i.v. (1 mg/kg), plasma): 2324 ± 170 ng/mL
- IC50 [1]: < 10 nM

SMILES: Cc1nc(-c2nnn(C)c2COC(=O)N(C)[C@H]2C[C@@H](OC(F)(F)F)C2)ccc1O[C@H]1CCC[C@H](C(=O)O)C1 [Compound 30]
- IC50 [1]: < 10 nM

SMILES: Cc1nc(-c2nnn(C)c2COC(=O)N(C)[C@H]2C[C@H](OC(F)(F)F)C2)ccc1O[C@H]1CCC[C@H](C(=O)O)C1 [Compound 31]
- IC50 [1]: < 10 nM

SMILES: Cc1nc(-c2nnn(C)c2CNC(=O)OC2CC(=C(F)F)C2)ccc1OCCC1(C(=O)O)CC1 (stereo not shown) [Compound 47]
- pharmacokinetic characteristics in mice ([3]; conclusion in words): excellent pharmacokinetic characteristics
- C0 or Cmax ([3]; mice, i.g. (3 mg/kg), plasma): 566 ± 122 ng/mL
- C0 or Cmax ([3]; mice, i.v. (1 mg/kg), plasma): 1361 ± 179 ng/mL
- AUC(0-t) [3, 6]: 1000 ± 333 ng·h/mL
- clearance [3, 6]: 16.8 ± 5.7 mL/min/kg
- Vd ([3]; mouse, iv, mice, i.v. (1 mg/kg), plasma, read-out: Vdss): 5.4 ± 1.4 L/kg
- bioavailability ([3]; mouse, plasma, po, mice, i.g. (3 mg/kg)): 91.3%
- AUC(0-t) ([3]; mouse, po, mice, i.g. (3 mg/kg), plasma): 2740 ± 325 ng·h/mL
- AUC(0-t) [2, 4]: 2850 ± 532 ng·h/mL
- clearance [2, 4]: 5.95 ± 1.2 mL/min/kg
- Vd [2, 4]: 0.825 ± 0.027 L/kg
- bioavailability ([2]; rat, plasma, po, rats, i.g. (3 mg/kg)): ≥ 98%
- AUC(0-t) [2, 5]: 12600 ± 1320 ng·h/mL
- C0 or Cmax ([2]; rats, i.g. (3 mg/kg), plasma): 3060 ± 457 ng/mL
- C0 or Cmax ([2]; rats, i.v. (1 mg/kg), plasma): 3233 ± 495 ng/mL

Now from value to compound:

- IC50 [1]: < 10 nM
SMILES: C=C1CC(N(C)C(=O)OCc2c(-c3ccc(OCC4(CC(=O)O)CC4)c(C)n3)nnn2C)C1 [Compound 36]

- IC50 [1]: < 10 nM
SMILES: CCCN(C)C(=O)OCc1c(-c2ccc(O[C@H]3CC(=C(F)F)C[C@H](C(=O)O)C3)c(C)n2)nnn1C [Compound 38]

- IC50 [1]: < 10 nM
SMILES: Cc1nc(-c2nnn(C)c2COC(=O)N(C)[C@H]2C[C@@H](OC(F)F)C2)ccc1O[C@H]1CCC[C@H](C(=O)O)C1 [Compound 39]

- IC50 [1]: < 10 nM
SMILES: Cc1nc(-c2nnn(C)c2COC(=O)N(C)[C@H]2C[C@H](OC(F)F)C2)ccc1O[C@H]1CCC[C@H](C(=O)O)C1 [Compound 40]

- IC50 [1]: < 10 nM
SMILES: Cc1nc(-c2nnn(C)c2CNC(=O)O[C@H]2C[C@@H](OC(F)(F)F)C2)ccc1O[C@H]1CCC[C@H](C(=O)O)C1 [Compound 41]

- IC50 [1]: < 10 nM
SMILES: Cc1nc(-c2nnn(C)c2CNC(=O)O[C@H]2C[C@H](OC(F)(F)F)C2)ccc1O[C@H]1CCC[C@H](C(=O)O)C1 [Compound 42]
